Results taken from US9597324B2, “Treatment of CNS disorders associated with mutations in genes encoding lysosomal enzymes” (Amicus Therapeutics, Inc., priority 2005, dated 2017).

Assays:
human L444P mutated Gba = experiment: Gba activity in brain and organs of L444P transgenic mice treated with chaperone in drinking water (incl. washout study); format: in vivo, mouse; conditions: for Gba activity in brain: about 10 mg/kg/day in drinking water
Description: L444P is a mutation associated with Types 2 and 3 Gaucher disease. […] Concomitant glucosylceramide synthase disruption is necessary, since previously made L444P transgenic mice died within 3 days of birth due to impaired permeability barrier function in the epidermis.
In addition, mice in a “washout” period of 2 weeks of non-chaperone treatment following 4 weeks of treatment were also evaluated for reversion of surrogate markers back to levels seen in untreated controls.
Mice were administered isofagomine or C-benzyl-isofagomine in their drinking water, ad libitum. Estimated daily dosage based on the volume of water consumed is about 10 mg/kg/day.
[…] Brian tissue is freshly harvested (blood washed away with PBS), or thawed from frozen stock. Tissue is minced tissue and homogenized on ice in 200-500 μl McIlvaine (MI) buffer (0.25% sodium taurocholate, 0.1% Triton x-100 in 0.1M citrate and 0.2M phosphate buffer, pH 5.2), and centrifuged at 10,000×g. The supernatant is collected and may be frozen at this step.
About 1-10 μl of supernatant from the brain tissue homogenates is added to a clear 96-well plate for the Micro BCA Protein Assay (Pierce, cat #23235) to quantitate the amount of total protein according to the manufacturer's protocol. As a negative control, another 10 μl is added to a black plate, mixed with 10 μl of 2.5 mM CBE (2.7 mg Conduritol B Epoxide in 6.7 ml buffer), an inhibitor of Gba activity, and left at room temperature (RT) for 30 minutes. 50 μl of 3 mM 4-methal Umbelliferal beta-D-glucoside (4-MU-beta-D-glucoside; made fresh, powder is dissolved in 0.2 ml of DMSO, then q.s. to proper volume with MI buffer), a Gba substrate, is then added, and the black plate is further incubated at 37° C. for 1 hr. After incubation, 10 μl of supernatant is added to a second black plate, mixed with 10 μl of MI buffer and 50 μl […] of Gba substrate 4-MU-beta-D-glucoside, and incubated at 37° C. for 1 hr. The reaction is then stopped by adding 70 μl 0.2 M glycine, pH 10.8. The plate is read in a plate-reader (Victor2 1420 multilabel counter; Wallac) at F460.
Relative […] is determined by the following equation: F460 without CBE−F460 with CBE)/(A550 sample−A550 buffer)
F460 reading is converted into nmole 4-MU based on 4-MU standard curve and A550 is converted into mg of protein based on the protein standard curve. One unit of Gba activity is defined as nmole of 4-MU released in one hour.
To determine if and in what time frame the effects of drinking water dosed AT2101 on L444P mice regress after cessation of the treatment, a washout study was performed. Nine male 3 month old L444P mice were dosed at about 10 mg/kg/day for 4 weeks with an equal number of mice untreated as a control.

[1] = system: N370S Gaucher fibroblasts (DMN89.15); experiment: Gba / LAMP-1 lysosomal staining (confocal microscopy) in N370S Gaucher fibroblasts; format: cell-based, human; conditions: for Gba staining localization: N370S Gaucher fibroblasts; for Amount of Gba in the lysosomes: dual Gba/LAMP-1 staining vs untreated control; for Lysosome staining pattern for Gba and LAMP-1: dual staining vs untreated control
Description: N370S fibroblasts (DMN89.15) were cultured in DMEM with 10% FBS and 1% penn/strep at 37 C with […]. Wild-type fibroblast cell line CRL-2097 form a healthy individual was used as a control. Cells were sub-cultured from 10 cm plates into 12-well plates with cover slips. Cells from one confluent 10 cm plate were diluted in 38 ml of culture medium.
C-benzyl-isofagomine-control (secondary antibody only); untreated; 0.03 μM; 0.1 μM; 0.3 μM; 1.0 μM; 3.0 μM; and 10.0 μM.
Isofagomine-control (secondary antibody only); untreated; 10 μM; 30 μM; 100 μM; 1 nM; 3 nM; and 10 nM.
Cells were cultured for a total of about 6 days.
Cells were washed for 5 minutes in PBS, fixed for 15 minutes in 3.7% paraformaldahyde (in PBS), washed again for 5 minutes in PBS, and permeabilized with 0.5% saponin for 5 minutes. Cells were then washed with PBS containing 0.1% saponin, treated for 5 minutes with fresh 0.1% sodium borohydride/0.01% saponin, and washed 3 times with PBS with 0.1% saponin/1% BSA for 5 minutes each.
Cells were incubated for 1 h with 500 μl of primary anti-Gba (1:200) or anti-LAMP-1 (1:200; BD Pharmingen, Cat. No. 555798) antibody solution in PBS with 1% BSA. Lysosomal staining using LysoTracker® Red (Cambrex, East Rutherford, N.J.) was performed according to the manufacturer's instructions. Following incubation, cells were washed 3 times in 1% BSA containing 0.1% saponin in PBS, followed by incubation with the secondary antibody solution (1:500; anti-rabbit […] for anti-Gba and anti-mouse IgG AlexaFluor594 for anti-LAMP-1). Cells were mounted onto coverslips, sealed, and immediately viewed.
Cells were visualized using a confocal microscope. The red and green channel gains were set to 6 and the laser power was optimized using the intensity window, and were not adjusted for the rest of the experiment. All slides were analyzed at the same sitting and all images were gathered without any zoom using the 20× and 60× lens, the small pinhole, optimal pixel size, an average of 2 scans, and red and green channels were acquired simultaneously as in all previous experiments.

[2] = Detection of IFG in the CSF of treated monkeys; format: in vivo
Gaucher patient cells = conditions: cited from earlier work
[3] = target: T1, human mutant α-Gal A (R301Q) (Homo sapiens, UniProt P06280, R301Q); conditions: neutral pH; cited from earlier work
T1 sequence (P06280 32-429 R301Q): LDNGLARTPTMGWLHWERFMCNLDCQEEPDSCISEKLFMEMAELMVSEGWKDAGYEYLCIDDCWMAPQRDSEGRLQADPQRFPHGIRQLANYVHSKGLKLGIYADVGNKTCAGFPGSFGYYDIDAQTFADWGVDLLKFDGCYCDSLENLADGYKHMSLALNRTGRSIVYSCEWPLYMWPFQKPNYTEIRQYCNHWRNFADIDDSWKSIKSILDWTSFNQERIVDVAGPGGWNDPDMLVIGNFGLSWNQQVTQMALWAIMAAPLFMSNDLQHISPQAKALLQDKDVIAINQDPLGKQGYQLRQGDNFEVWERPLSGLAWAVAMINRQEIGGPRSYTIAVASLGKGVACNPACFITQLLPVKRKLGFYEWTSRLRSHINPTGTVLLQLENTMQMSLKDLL

[4] = system: lymphoblasts established from Fabry patients with R301Q or Q279E mutations; conditions: cited from earlier work
mutant (R301Q) α-Gal A = target: T2, mutant (R301Q) α-Gal A (Homo sapiens, UniProt P06280, R301Q); conditions: oral administration, transgenic mice overexpressing mutant (R301Q) α-Gal A; cited from earlier work
T2 construct: host or cells: major organs of transgenic mice
T2 sequence (P06280 32-429 R301Q): T1 sequence (P06280 32-429 R301Q)

[5] = after two weeks of treatment, data not shown
[6] = N370S fibroblasts, 3.0 μl (so in the source)
[7] = N370S fibroblasts, concentration not given

For `OCC1C(Cc2ccccc2)NCC(O)[C@@H]1O` (stereo partly shown) [C-benzyl-isofagomine], the “Gba activity in brain (in words)” value (human L444P mutated Gba; [5]) was “trend toward increased activity”, the “Gba activity in lung (in words)” value (human L444P mutated Gba; [5]) was “trend toward increased activity” and the “Gba activity in spleen (in words)” value (human L444P mutated Gba; [5]) was “significant increased”. For the same compound, the “Gba activity in brain (in words)” value (human L444P mutated Gba; after two weeks of treatment, data not shown, listed as AT2206) was “trend toward increase”, the Gba staining localization ([1]; 3 μM, Gba staining only (FIG. 2N)) was “localize to lysosomes” and the “Amount of Gba in the lysosomes” value [1, 6] was “increased”. For the same compound, the “Lysosome staining pattern for Gba and LAMP-1” value [1, 6] was “re-established a normal lysosome punctuate staining pattern”.

For `OC[C@H]1CNC[C@@H](O)[C@@H]1O` [isofagomine, (3R,4R,5R)-5-(hydroxymethyl)-3,4-piperidinediol], the “Gba activity in brain” value (human L444P mutated Gba; after 2 weeks of treatment, untreated about 1 U/mg) was “about 4.5 U/mg”, the “Gba activity in brain” value (human L444P mutated Gba; after 4 weeks of treatment, untreated about 1 U/mg) was “about 4.5 U/mg” and the “Gba activity in brain” value (human L444P mutated Gba; after 12 weeks of treatment, p<0.001) was “about 6 U/mg”. The “Gba activity in brain, washout study (in words)” value (human L444P mutated Gba; after 4 weeks of treatment at 10 mg/kg/day (FIG. 1B)) was “significantly elevated”, the “Gba activity in brain (in words)” value (human L444P mutated Gba; after as little as two weeks of treatment, persisted through 4-12 weeks (FIG. 1A)) was “Significant increase” and the “Detection in the CSF following treatment” value [2] was “detected”. The “Rescue of Gba” value (Gaucher patient cells) was “rescue”, the Gba staining localization ([1]; 30 μM, Gba staining only (FIG. 2M)) was “localize to lysosomes” and the “Amount of Gba in the lysosomes” value ([1]; N370S fibroblasts, 30.0 μM) was “increased”. The “Lysosome staining pattern for Gba and LAMP-1” value ([1]; N370S fibroblasts, 30.0 μM) was “re-established a normal lysosome punctuate staining pattern”, the “Amount of Gba seen in the lysosome” value [1, 7] was “increased” and the “Lysosomal staining pattern of the cells” value [1, 7] was “restored a normal lysosomal staining pattern”.

For `OC[C@H]1NC[C@H](O)[C@@H](O)[C@H]1O` [DGJ, 1-deoxygalactonojirimycin], the “In vitro stability of the mutant enzyme” value [3] is given as “effectively increased”, the “Mutant enzyme activity in lymphoblasts” value [4] is given as “enhanced” and the “Enzyme activity in major organs” value (mutant (R301Q) α-Gal A) is given as “substantially elevated”.
